Data from patent publication US20230085307A1, “PYRIDAZINONE COMPOUND AND HERBICIDE” (NISSAN CHEMICAL CORPORATION, priority 2019, published 2023).

Legend:
redroot pigweed [1] = experiment: Test Example 4: herbicidal effect by soil treatment (Table 19, symbol N); type: in vivo, redroot pigweed (Amaranthus retroflexus); details: amount of applied herbicide 320 g/ha
Summary of the method: (§1)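 In this soil treatment, the formulated compound reached the seeds only through the soil: seeds were buried about 1.5 cm deep in sterilized diluvial soil, then the diluted emulsion was sprayed over the surface. After three weeks at 25° C. to 30° C. in a greenhouse, effects were graded on criteria from an earlier test.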

barnyard grass [2] = experiment: Test Example 4: herbicidal effect by soil treatment (Table 19, symbol H); type: in vivo, barnyard grass (Echinochloa crus-galli); details: amount of applied herbicide 320 g/ha
Summary of the method: as §1

southern crabgrass [3] = experiment: Test Example 5: herbicidal effect by foliage application, plastic box (Table 20, symbol F); type: in vivo, southern crabgrass (Digitaria ciliaris); details: foliage application, 320 g/ha
Summary of the method: (§2)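 Plants were sown into sterilized diluvial soil under about 1.5 cm cover and kept in a greenhouse at 25° C. to 30° C. Fourteen days on, foliage received an even spray of the diluted emulsion. Herbicidal or crop effect was judged three weeks afterwards.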

oval-leafed pondweed = experiment: Test Example 2: herbicidal activity, application during weed generation under submerged conditions (Table 17, symbol C); type: in vivo, oval-leafed pondweed (Monochoria vaginalis); details: for herbicidal effect rating, C: oval-leafed pondweed: AAH 320 g/ha, application during weed generation, submerged conditions
Summary of the method: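 Mixed weed seedlings in alluvial soil under a 4 cm water layer, greenhouse-grown at 25–30° C. Compound given as a diluted emulsion into the floodwater at the 1–2 leaf stage; response graded after three weeks.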

blackgrass [4] = experiment: Test Example 5: herbicidal effect by foliage application, plastic box (Table 20, symbol J); type: in vivo, blackgrass (Alopecurus myosuroides); details: foliage application, 320 g/ha
Summary of the method: as §2

windgrass = experiment: Test Example 4: herbicidal effect by soil treatment (Table 19, symbol L); type: in vivo, windgrass (Apera spica-venti); details: amount of applied herbicide 320 g/ha
Summary of the method: as §1

barnyard grass [5] = experiment: Test Example 3: herbicidal effect by foliage application, Wagner pot (Table 18, symbol H); type: in vivo, barnyard grass (Echinochloa crus-galli); details: for herbicidal effect on barnyard grass (H): 320 g/ha
Summary of the method: (§3)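 Plants were sown in alluvial soil held under 0.1–0.5 cm standing water and grown 14 days in a greenhouse at 25–30 °C. An emulsifiable formulation, water-diluted to the set dose, was then sprayed onto the foliage, and effects were scored three weeks later using previously defined criteria.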

Chinese sprangletop = experiment: Test Example 3: herbicidal effect by foliage application, Wagner pot (Table 18, symbol D); type: in vivo, chinese sprangletop (Leptochloa chinensis); details: for herbicidal effect on Chinese sprangletop (D): 320 g/ha
Summary of the method: as §3

green foxtail [6] = experiment: Test Example 4: herbicidal effect by soil treatment (Table 19, symbol G); type: in vivo, green foxtail (Setaria viridis); details: amount of applied herbicide 320 g/ha
Summary of the method: as §1

persian speedwell = experiment: Test Example 5: herbicidal effect by foliage application, plastic box (Table 20, symbol R); type: in vivo, Persian speedwell (Veronica persica); details: foliage application, 320 g/ha
Summary of the method: as §2

chickweed = experiment: Test Example 4: herbicidal effect by soil treatment (Table 19, symbol P); type: in vivo, common chickweed (Stellaria media); details: amount of applied herbicide 320 g/ha
Summary of the method: as §1

late watergrass = experiment: Test Example 1: herbicidal activity, application before weed generation under submerged conditions (Table 16, symbol A); type: in vivo, late watergrass (Echinochloa oryzicola); details: amount of applied herbicide 320 g/ha
Summary of the method: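 Submerged Wagner pots (alluvial soil, 4 cm water) sown with weed seeds and planted with 2.5-leaf rice seedlings; emulsifiable concentrate diluted in water applied to water surface on sowing day. Held in greenhouse at 25-30 °C; injury scored 0-5 by herbicidal rate after three weeks.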

green foxtail [7] = experiment: Test Example 5: herbicidal effect by foliage application, plastic box (Table 20, symbol G); type: in vivo, green foxtail (Setaria viridis); details: foliage application, 320 g/ha
Summary of the method: as §2

southern crabgrass [8] = experiment: Test Example 4: herbicidal effect by soil treatment (Table 19, symbol F); type: in vivo, southern crabgrass (Digitaria ciliaris); details: amount of applied herbicide 320 g/ha
Summary of the method: as §1

blackgrass [9] = experiment: Test Example 4: herbicidal effect by soil treatment (Table 19, symbol J); type: in vivo, blackgrass (Alopecurus myosuroides); details: amount of applied herbicide 320 g/ha
Summary of the method: as §1

redroot pigweed [10] = experiment: Test Example 5: herbicidal effect by foliage application, plastic box (Table 20, symbol N); type: in vivo, redroot pigweed (Amaranthus retroflexus); details: foliage application, 320 g/ha, evaluated 3 weeks after application
Summary of the method: as §2

[11] = amount of applied herbicide 320 g/ha
[12] = evaluated 3 weeks after application

SMILES | herbicidal effect rating, C: oval-leafed pondweed (oval-leafed pondweed) | Herbicidal effect, A: late watergrass (late watergrass) | N: redroot pigweed, herbicidal effect grade (redroot pigweed [1]) | H: barnyard grass, herbicidal effect grade (barnyard grass [2]) | herbicidal effect on southern crabgrass (F) (southern crabgrass [3]; three weeks after application) | herbicidal effect on blackgrass (J) (blackgrass [4]; three weeks after application) | L: windgrass, herbicidal effect grade (windgrass) | herbicidal effect on barnyard grass (H) (barnyard grass [5]) | herbicidal effect on Chinese sprangletop (D) (Chinese sprangletop) | G: green foxtail, herbicidal effect grade (green foxtail [6]) | herbicidal effect on persian speedwell (R) (persian speedwell; three weeks after application) | P: chickweed, herbicidal effect grade (chickweed) | herbicidal effect on green foxtail (G) (green foxtail [7]; three weeks after application) | F: southern crabgrass, herbicidal effect grade (southern crabgrass [8]) | J: blackgrass, herbicidal effect grade (blackgrass [9]) | further results
CCOc1ccccc1-c1sc2ccc(F)cc2c1-c1c(O)c(CC)nn(C)c1=O [2-416] | 2 (Herbicidal rate of 20% or more and less than 40%) | 3 (Herbicidal rate of 40% or more and less than 70%) |  |  |  |  |  |  |  |  |  |  |  |  |  | herbicidal effect, N: redroot pigweed (redroot pigweed [1]): 0 (Herbicidal rate of 5% or less (almost no effect)); herbicidal effect, H: barnyard grass (barnyard grass [2]): 0 (Herbicidal rate of 5% or less (almost no effect)); F: southern crabgrass, herbicidal effect grade (southern crabgrass [3]; three weeks after application): 1 (Herbicidal rate of 5% or more and less than 20%); J: blackgrass, herbicidal effect grade (blackgrass [4]; three weeks after application): 0 (Herbicidal rate of 5% or less (almost no effect)); herbicidal effect, L: windgrass (windgrass): 0 (Herbicidal rate of 5% or less (almost no effect)); herbicidal effect on H: barnyard grass (barnyard grass [5]; [11]): 5 (Herbicidal rate of 90% or more (almost completely withered)); herbicidal effect on D: Chinese sprangletop (Chinese sprangletop; [11]): 3 (Herbicidal rate of 40% or more and less than 70%); herbicidal effect, G: green foxtail (green foxtail [6]): 0 (Herbicidal rate of 5% or less (almost no effect)); R: persian speedwell, herbicidal effect grade (persian speedwell; three weeks after application): 5 (Herbicidal rate of 90% or more (almost completely withered)); herbicidal effect, P: chickweed (chickweed): 2 (Herbicidal rate of 20% or more and less than 40%); G: green foxtail, herbicidal effect grade (green foxtail [7]; three weeks after application): 2 (Herbicidal rate of 20% or more and less than 40%); herbicidal effect, F: southern crabgrass (southern crabgrass [8]): 0 (Herbicidal rate of 5% or less (almost no effect)); herbicidal effect, J: blackgrass (blackgrass [9]): 0 (Herbicidal rate of 5% or less (almost no effect))
CCCC(=O)Oc1c(C)nn(C)c(=O)c1-c1c(-c2ccc(F)cc2)sc2cc(C)c(C)cc12 [5-089] | 0 (Herbicidal rate of 5% or less (almost no effect)) | 3 (Herbicidal rate of 40% or more and less than 70%) | 0 (Herbicidal rate of 5% or less (almost no effect)) | 0 (Herbicidal rate of 5% or less (almost no effect)) | 0 (Herbicidal rate of 5% or less (almost no effect)) | 0 (Herbicidal rate of 5% or less (almost no effect)) | 4 (Herbicidal rate of 70% or more and less than 90%) | 1 (Herbicidal rate of 5% or more and less than 20%) | 3 (Herbicidal rate of 40% or more and less than 70%) | 0 (Herbicidal rate of 5% or less (almost no effect)) | 1 (Herbicidal rate of 5% or more and less than 20%) | 0 (Herbicidal rate of 5% or less (almost no effect)) | 0 (Herbicidal rate of 5% or less (almost no effect)) | 0 (Herbicidal rate of 5% or less (almost no effect)) | 0 (Herbicidal rate of 5% or less (almost no effect)) | 
CCOc1ccccc1-c1sc2cc(C)c(C)cc2c1-c1c(O)c(C)nn(C)c1=O [5-094] | 3 (Herbicidal rate of 40% or more and less than 70%) | 4 (Herbicidal rate of 70% or more and less than 90%) | 3 (Herbicidal rate of 40% or more and less than 70%) | 1 (Herbicidal rate of 5% or more and less than 20%) | 5 (Herbicidal rate of 90% or more (almost completely withered)) | 4 (Herbicidal rate of 70% or more and less than 90%) | 3 (Herbicidal rate of 40% or more and less than 70%) | 5 (Herbicidal rate of 90% or more (almost completely withered)) | 3 (Herbicidal rate of 40% or more and less than 70%) | 4 (Herbicidal rate of 70% or more and less than 90%) | 5 (Herbicidal rate of 90% or more (almost completely withered)) | 1 (Herbicidal rate of 5% or more and less than 20%) | 5 (Herbicidal rate of 90% or more (almost completely withered)) | 4 (Herbicidal rate of 70% or more and less than 90%) | 1 (Herbicidal rate of 5% or more and less than 20%) | 
COc1cc(F)ccc1-c1sc2cc(C)c(C)cc2c1-c1c(O)c(C)nn(C)c1=O [5-101] | 2 (Herbicidal rate of 20% or more and less than 40%) | 3 (Herbicidal rate of 40% or more and less than 70%) | 1 (Herbicidal rate of 5% or more and less than 20%) | 0 (Herbicidal rate of 5% or less (almost no effect)) | 4 (Herbicidal rate of 70% or more and less than 90%) | 4 (Herbicidal rate of 70% or more and less than 90%) | 0 (Herbicidal rate of 5% or less (almost no effect)) | 5 (Herbicidal rate of 90% or more (almost completely withered)) | 2 (Herbicidal rate of 20% or more and less than 40%) | 0 (Herbicidal rate of 5% or less (almost no effect)) | 4 (Herbicidal rate of 70% or more and less than 90%) | 0 (Herbicidal rate of 5% or less (almost no effect)) | 4 (Herbicidal rate of 70% or more and less than 90%) | 0 (Herbicidal rate of 5% or less (almost no effect)) | 0 (Herbicidal rate of 5% or less (almost no effect)) | 
Cc1nn(C)c(=O)c(-c2c(-c3ccc(Cl)cc3)sc3cccc(F)c23)c1O [11-001] |  | 3 (Herbicidal rate of 40% or more and less than 70%) | 5 (Herbicidal rate of 90% or more (almost completely withered)) | 0 (Herbicidal rate of 5% or less (almost no effect)) |  |  | 0 (Herbicidal rate of 5% or less (almost no effect)) |  |  | 0 (Herbicidal rate of 5% or less (almost no effect)) |  | 4 (Herbicidal rate of 70% or more and less than 90%) |  | 0 (Herbicidal rate of 5% or less (almost no effect)) |  | F (southern crabgrass) herbicidal effect grade (southern crabgrass [3]; [12]): 0 (Herbicidal rate of 5% or less (almost no effect)); herbicidal effect grade, C: oval-leafed pondweed (oval-leafed pondweed; application during weed generation under submerged conditions, amount of applied herbicide 320 g/ha): 3 (Herbicidal rate of 40% or more and less than 70%); J (blackgrass) herbicidal effect grade (blackgrass [4]; [12]): 0 (Herbicidal rate of 5% or less (almost no effect)); Herbicidal effect on H (barnyard grass), foliage application (barnyard grass [5]; [11]): 3 (Herbicidal rate of 40% or more and less than 70%); Herbicidal effect on D (Chinese sprangletop), foliage application (Chinese sprangletop; [11]): 3 (Herbicidal rate of 40% or more and less than 70%); N (redroot pigweed) herbicidal effect grade (redroot pigweed [10]): 5 (Herbicidal rate of 90% or more (almost completely withered)); R (persian speedwell) herbicidal effect grade (persian speedwell; [12]): 5 (Herbicidal rate of 90% or more (almost completely withered)); G (green foxtail) herbicidal effect grade (green foxtail [7]; [12]): 0 (Herbicidal rate of 5% or less (almost no effect))
